Reference: PubChem BioAssay (NCI)
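Dose response: 5 concentrations. Exposure: 48 h. Format: 96-well plates. Endpoint: linear interpolation; highest concentration if not reached. GI50 marks 50% less growth. TGI: total growth inhibition.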

Experiments:
Assay in all cases: DTP human tumour cell line panel, 48 h
SR leukemia = tested on: SR leukemia
RXF 393 renal = tested on: RXF 393 renal
MALME-3M melanoma = tested on: MALME-3M melanoma
SK-MEL-5 melanoma = tested on: SK-MEL-5 melanoma
786-0 renal = tested on: 786-0 renal
NCI-H522 lung = tested on: NCI-H522 lung
HL-60(TB) leukemia = tested on: HL-60(TB) leukemia
OVCAR-3 ovarian = tested on: OVCAR-3 ovarian
RPMI-8226 leukemia = tested on: RPMI-8226 leukemia
UACC-257 melanoma = tested on: UACC-257 melanoma

## CC[O-].CC[O-].O=C([CH-]C(=O)c1cccnc1)c1ccccc1.O=C([CH-]C(=O)c1cccnc1)c1ccccc1.[Ti+4]
SR leukemia
  GI50: 25.5 µM
  TGI: > 100 µM
RXF 393 renal
  GI50: 19.7 µM
  TGI: 70.4 µM
MALME-3M melanoma
  GI50: > 100 µM
  TGI: > 100 µM
SK-MEL-5 melanoma
  GI50: > 100 µM
  TGI: > 100 µM
786-0 renal
  GI50: 61.1 µM
  TGI: > 100 µM
NCI-H522 lung
  GI50: 26.1 µM
  TGI: > 100 µM
HL-60(TB) leukemia
  GI50: 27.9 µM
  TGI: 85 µM
OVCAR-3 ovarian
  GI50: > 100 µM
  TGI: > 100 µM
RPMI-8226 leukemia
  GI50: 55.8 µM
  TGI: > 100 µM
UACC-257 melanoma
  GI50: 52.2 µM
  TGI: > 100 µM

## C/C=C/C1=C(Cl)C(=O)[C@@H](Cl)[C@@]1(O)C(=O)OC
SR leukemia
  TGI: 21.7 µM
RXF 393 renal
  TGI: 4.76 µM
MALME-3M melanoma
  TGI: 6.21 µM
SK-MEL-5 melanoma
  TGI: 16.5 µM
786-0 renal
  TGI: 18 µM
NCI-H522 lung
  TGI: 2.52 µM
HL-60(TB) leukemia
  TGI: 4.28 µM
OVCAR-3 ovarian
  TGI: 6.94 µM
RPMI-8226 leukemia
  TGI: 29 µM
UACC-257 melanoma
  TGI: 3.5 µM

## Cn1cc(C2=C(c3cccc(N)c3)C(=O)NC2=O)c2ccccc21
SR leukemia
  GI50: 9.03 µM
  TGI: 24.8 µM
RXF 393 renal
  GI50: 3.63 µM
  TGI: > 17.7 µM
MALME-3M melanoma
  GI50: > 25 µM
  TGI: > 25 µM
SK-MEL-5 melanoma
  GI50: 9.66 µM
  TGI: > 25 µM
786-0 renal
  GI50: 14 µM
  TGI: > 25 µM
NCI-H522 lung
  GI50: 15.5 µM
  TGI: > 25 µM
HL-60(TB) leukemia
  GI50: 11.4 µM
  TGI: > 25 µM
OVCAR-3 ovarian
  GI50: 5.67 µM
  TGI: > 25 µM
RPMI-8226 leukemia
  GI50: > 21.4 µM
  TGI: > 25 µM
UACC-257 melanoma
  GI50: > 25 µM
  TGI: > 25 µM

## COC(=O)C1=C(C)NC(C)=C(C(=O)OC)C1/C=C(\Cl)c1ccc(Cl)c(Cl)c1
SR leukemia
  GI50: 3.3 µM
  TGI: 22.4 µM
RXF 393 renal
  GI50: 13.4 µM
  TGI: 27.2 µM
MALME-3M melanoma
  GI50: 17.5 µM
  TGI: 35.9 µM
SK-MEL-5 melanoma
  GI50: 15.2 µM
  TGI: 28.5 µM
786-0 renal
  GI50: 17 µM
  TGI: 30.8 µM
NCI-H522 lung
  GI50: 16.6 µM
  TGI: 32.4 µM
HL-60(TB) leukemia
  GI50: 11.9 µM
  TGI: 38.4 µM
OVCAR-3 ovarian
  GI50: 12.8 µM
  TGI: 26.3 µM
RPMI-8226 leukemia
  GI50: 1.8 µM
  TGI: 13.7 µM
UACC-257 melanoma
  GI50: 18 µM
  TGI: 36.1 µM

## CCOc1ccc(-c2cnnn2-c2nonc2-n2cccc2)cc1
SR leukemia
  GI50: 0.104 µM
  TGI: 41.4 µM
RXF 393 renal
  GI50: 0.172 µM
  TGI: 0.774 µM
MALME-3M melanoma
  GI50: 0.383 µM
  TGI: > 78.3 µM
SK-MEL-5 melanoma
  GI50: 0.245 µM
  TGI: 12.4 µM
786-0 renal
  GI50: 0.416 µM
  TGI: > 100 µM
NCI-H522 lung
  GI50: 0.121 µM
  TGI: 0.531 µM
HL-60(TB) leukemia
  GI50: 0.309 µM
  TGI: 13.4 µM
OVCAR-3 ovarian
  GI50: 0.233 µM
  TGI: 0.65 µM
RPMI-8226 leukemia
  GI50: 0.32 µM
  TGI: 10.9 µM
UACC-257 melanoma
  GI50: 0.449 µM
  TGI: > 69 µM

## O=C(Nc1ccc(F)cc1)Nc1ccccc1CNc1nc(Nc2ccc(OCCN3CCCC3)cc2)ncc1Cl
SR leukemia
  GI50: 1.81 µM
  TGI: 50 µM
RXF 393 renal
  GI50: 0.895 µM
  TGI: 1.88 µM
MALME-3M melanoma
  GI50: 0.81 µM
  TGI: 1.55 µM
SK-MEL-5 melanoma
  GI50: 1.55 µM
  TGI: 4.98 µM
786-0 renal
  GI50: 0.92 µM
  TGI: 1.77 µM
NCI-H522 lung
  GI50: 2.26 µM
  TGI: 13.4 µM
HL-60(TB) leukemia
  GI50: 1.07 µM
  TGI: 2.31 µM
OVCAR-3 ovarian
  GI50: 1.01 µM
  TGI: 2.01 µM
RPMI-8226 leukemia
  GI50: 1.4 µM
  TGI: 3.72 µM
UACC-257 melanoma
  GI50: 1.07 µM
  TGI: 2.35 µM

## Cn1ccnc1C(=O)/C=C/c1ccc(C(=O)Nc2ccc(S(F)(F)(F)(F)F)cc2)cc1
SR leukemia
  GI50: 0.391 µM
  TGI: 10.3 µM
RXF 393 renal
  GI50: 2.65 µM
  TGI: 13.9 µM
MALME-3M melanoma
  GI50: 5.76 µM
  TGI: > 14.3 µM
SK-MEL-5 melanoma
  GI50: 0.603 µM
  TGI: 5.99 µM
786-0 renal
  GI50: 3.86 µM
  TGI: > 14.3 µM
NCI-H522 lung
  GI50: 4.69 µM
  TGI: > 14.3 µM
HL-60(TB) leukemia
  GI50: 0.945 µM
  TGI: 5.49 µM
OVCAR-3 ovarian
  GI50: 1.05 µM
  TGI: 7.26 µM
RPMI-8226 leukemia
  GI50: 0.38 µM
  TGI: 2.68 µM
UACC-257 melanoma
  GI50: 2.18 µM
  TGI: > 14.3 µM

## CC(C)Nc1ccc(Nc2ccccc2)cc1
SR leukemia
  GI50: 15.7 µM
  TGI: 49.3 µM
RXF 393 renal
  GI50: 8.81 µM
  TGI: 24.6 µM
MALME-3M melanoma
  GI50: 14.9 µM
  TGI: 43.2 µM
SK-MEL-5 melanoma
  GI50: 11.4 µM
  TGI: 24.9 µM
786-0 renal
  GI50: 17.8 µM
  TGI: > 100 µM
NCI-H522 lung
  GI50: 13.7 µM
  TGI: 28.8 µM
HL-60(TB) leukemia
  GI50: 17.7 µM
  TGI: 51.3 µM
OVCAR-3 ovarian
  GI50: 9.49 µM
  TGI: 21.8 µM
RPMI-8226 leukemia
  GI50: 3.68 µM
  TGI: 19.5 µM
UACC-257 melanoma
  GI50: 15.6 µM
  TGI: 31.5 µM

## CN(C)CCN(C)CC1COC(C)(C)O1 (stereo not given)
SR leukemia
  TGI: > 100 µM
RXF 393 renal
  TGI: > 100 µM
MALME-3M melanoma
  TGI: > 100 µM
SK-MEL-5 melanoma
  TGI: > 100 µM
786-0 renal
  TGI: > 100 µM
NCI-H522 lung
  TGI: > 100 µM
HL-60(TB) leukemia
  TGI: > 100 µM
OVCAR-3 ovarian
  TGI: > 100 µM
RPMI-8226 leukemia
  TGI: > 100 µM
UACC-257 melanoma
  TGI: > 100 µM

## COc1cc(-n2cc(-c3ccc(F)cc3)nc2SCc2ccccc2)cc(OC)c1OC
SR leukemia
  GI50: > 100 µM
  TGI: > 100 µM
RXF 393 renal
  GI50: 19.4 µM
  TGI: > 100 µM
MALME-3M melanoma
  GI50: > 100 µM
  TGI: > 100 µM
SK-MEL-5 melanoma
  GI50: 54.8 µM
  TGI: > 100 µM
786-0 renal
  GI50: > 100 µM
  TGI: > 100 µM
NCI-H522 lung
  GI50: 89.8 µM
  TGI: > 100 µM
HL-60(TB) leukemia
  GI50: > 100 µM
  TGI: > 100 µM
OVCAR-3 ovarian
  GI50: > 100 µM
  TGI: > 100 µM
RPMI-8226 leukemia
  GI50: > 100 µM
  TGI: > 100 µM
UACC-257 melanoma
  GI50: > 100 µM
  TGI: > 100 µM

## Cc1oc2c(C)c3oc(=O)cc(C)c3cc2c1CNC(=O)[C@@H]1OCCOCCOCCOCCOCCOC1C(=O)O (stereo not given in full)
SR leukemia
  TGI: > 100 µM
RXF 393 renal
  TGI: > 100 µM
MALME-3M melanoma
  TGI: > 100 µM
SK-MEL-5 melanoma
  TGI: > 100 µM
786-0 renal
  TGI: 45 µM
NCI-H522 lung
  TGI: > 100 µM
HL-60(TB) leukemia
  TGI: > 100 µM
OVCAR-3 ovarian
  TGI: > 100 µM
RPMI-8226 leukemia
  TGI: > 100 µM
UACC-257 melanoma
  TGI: > 100 µM

## CCOC(=O)c1c(-c2ccccc2)oc(-c2ccccc2)c1C(=O)OCC
SR leukemia
  TGI: > 100 µM
RXF 393 renal
  TGI: > 100 µM
MALME-3M melanoma
  TGI: > 100 µM
SK-MEL-5 melanoma
  TGI: > 100 µM
786-0 renal
  TGI: > 100 µM
NCI-H522 lung
  TGI: > 100 µM
HL-60(TB) leukemia
  TGI: > 100 µM
OVCAR-3 ovarian
  TGI: > 100 µM
RPMI-8226 leukemia
  TGI: > 100 µM
UACC-257 melanoma
  TGI: > 100 µM

## CCCCCCCC(=O)NCC(O)CNC(=O)CCCCCCC
SR leukemia
  TGI: > 100 µM
RXF 393 renal
  TGI: > 100 µM
MALME-3M melanoma
  TGI: > 100 µM
SK-MEL-5 melanoma
  TGI: > 100 µM
786-0 renal
  TGI: > 100 µM
NCI-H522 lung
  TGI: > 100 µM
HL-60(TB) leukemia
  TGI: > 100 µM
OVCAR-3 ovarian
  TGI: > 100 µM
RPMI-8226 leukemia
  TGI: > 100 µM
UACC-257 melanoma
  TGI: > 100 µM

## COc1cc2cc(C(=O)CCC(=O)O)sc2cc1OC
SR leukemia
  GI50: 3.53 µM
  TGI: > 100 µM
RXF 393 renal
  GI50: 33.4 µM
  TGI: > 100 µM
MALME-3M melanoma
  GI50: > 100 µM
  TGI: > 100 µM
SK-MEL-5 melanoma
  GI50: > 100 µM
  TGI: > 100 µM
786-0 renal
  GI50: > 100 µM
  TGI: > 100 µM
NCI-H522 lung
  GI50: > 100 µM
  TGI: > 100 µM
HL-60(TB) leukemia
  GI50: 28.3 µM
  TGI: > 100 µM
OVCAR-3 ovarian
  GI50: > 100 µM
  TGI: > 100 µM
RPMI-8226 leukemia
  GI50: > 100 µM
  TGI: > 100 µM
UACC-257 melanoma
  GI50: 33.4 µM
  TGI: > 100 µM
